Measured values reported in the supplement of paper PMC10307832.

Columns and labels:
Experiment in all cases: relative viability (nuclei count vs DMSO), 5 days (fraction); higher = more cells survive
RU-SKI 43 + Lapatinib = compound: CC[C@@H](C)CNCC(=O)N1CCC2=C([C@@H]1COC3=CC=CC(=C3)C)C=CS2 [RU-SKI 43] + CS(=O)(=O)CCNCc1ccc(-c2ccc3ncnc(Nc4ccc(OCc5cccc(F)c5)c(Cl)c4)c3c2)o1 [Lapatinib] (partner 2 µM)
In short: (§1)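 Relative viability equals treated-well nuclei counts divided by vehicle-well nuclei counts. Counts came from 4× images of lung cancer cell lines grown in 1536-well plates for 5 days after pin-tool dosing on the day after seeding. Dosing used one drug alone or a fixed anchor-drug dose plus five library-drug doses (not always all listed) in √10 steps, and values are medians of duplicate plates.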

MK-8033 + Pictilisib = compound: Cn1cc(-c2cnc3ccc4ccc(CS(=O)(=O)NCc5ccccn5)cc4c(=O)c3c2)cn1 [MK-8033] + CS(=O)(=O)N1CCN(Cc2cc3nc(-c4cccc5[nH]ncc45)nc(N4CCOCC4)c3s2)CC1 [Pictilisib] (partner 1 µM)
In short: as §1

RU-SKI 43 + Luminespib = compound: CC[C@@H](C)CNCC(=O)N1CCC2=C([C@@H]1COC3=CC=CC(=C3)C)C=CS2 [RU-SKI 43] + CCNC(=O)c1noc(-c2cc(C(C)C)c(O)cc2O)c1-c1ccc(CN2CCOCC2)cc1 [Luminespib] (partner 0.01 µM)
In short: as §1

RU-SKI 43 + AZD7762 = compound: CC[C@@H](C)CNCC(=O)N1CCC2=C([C@@H]1COC3=CC=CC(=C3)C)C=CS2 [RU-SKI 43] + NC(=O)Nc1cc(-c2cccc(F)c2)sc1C(=O)N[C@H]1CCCNC1 [AZD7762] (partner 0.2 µM)
In short: as §1

Cell Line | relative viability (RU-SKI 43 + Lapatinib; first compound 0.1 µM) | relative viability (RU-SKI 43 + Lapatinib; first compound 0.3162 µM) | relative viability (RU-SKI 43 + Lapatinib; first compound 1 µM) | relative viability (RU-SKI 43 + Lapatinib; first compound 3.162 µM) | relative viability (RU-SKI 43 + Lapatinib; first compound 10 µM) | relative viability (MK-8033 + Pictilisib; first compound 0.02 µM) | relative viability (MK-8033 + Pictilisib; first compound 0.06325 µM) | relative viability (MK-8033 + Pictilisib; first compound 0.2 µM) | relative viability (MK-8033 + Pictilisib; first compound 0.6325 µM) | relative viability (MK-8033 + Pictilisib; first compound 2 µM) | relative viability (RU-SKI 43 + Luminespib; first compound 0.1 µM) | relative viability (RU-SKI 43 + Luminespib; first compound 0.3162 µM) | relative viability (RU-SKI 43 + Luminespib; first compound 1 µM) | relative viability (RU-SKI 43 + Luminespib; first compound 3.162 µM) | relative viability (RU-SKI 43 + Luminespib; first compound 10 µM) | relative viability (RU-SKI 43 + AZD7762; first compound 0.1 µM) | relative viability (RU-SKI 43 + AZD7762; first compound 0.3162 µM) | relative viability (RU-SKI 43 + AZD7762; first compound 1 µM) | relative viability (RU-SKI 43 + AZD7762; first compound 3.162 µM) | relative viability (RU-SKI 43 + AZD7762; first compound 10 µM)
NCI-H2126 | 0.797 | 0.63 | 0.823 | 0.779 | 0.766 | 0.491 | 0.393 | 0.455 | 0.515 | 0.491 | 0.837 | 1.09 | 1.11 | 0.959 | 0.891 | 1.05 | 1.17 | 1.09 | 1.05 | 1.04
NCI-H2087 | 0.916 | 1.12 | 0.947 | 1.09 | 0.804 | 0.912 | 0.814 | 0.737 | 0.994 | 0.692 | 0.158 | 0.173 | 0.193 | 0.145 | 0.131 | 1.33 | 1.65 | 1.3 | 1.36 | 1.31
EMC-BAC-2 | 0.924 | 0.961 | 0.933 | 0.983 | 0.916 | 0.59 | 0.412 | 0.478 | 0.502 | 0.483 | 1.18 | 1.26 | 1.32 | 1.16 | 1.19 | 1.1 | 1.1 | 1.27 | 1.13 | 1.09
NCI-H647 | 1.24 | 1.22 | 1.16 | 1.25 | 1.26 | 0.444 | 0.421 | 0.398 | 0.41 | 0.471 | 0.163 | 0.325 | 0.236 | 0.123 | 0.221 | 0.358 | 0.553 | 0.583 | 0.44 | 0.499
LC-2-ad | 1.05 | 0.969 | 1 | 0.976 | 0.93 | 0.43 | 0.461 | 0.453 | 0.572 | 0.486 | 0.987 | 1.1 | 1 | 1.04 | 0.956 | 0.899 | 0.945 | 0.95 | 0.896 | 0.857
EKVX | 0.185 | 0.175 | 0.202 | 0.208 | 0.187 | 0.433 | 0.409 | 0.442 | 0.438 | 0.476 | 0.939 | 0.809 | 0.758 | 0.932 | 0.833 | 0.605 | 0.714 | 0.874 | 0.707 | 0.658
NCI-H596 | 1.09 | 1.06 | 0.997 | 1.19 | 1.14 | 0.352 | 0.319 | 0.379 | 0.384 | 0.397 | 0.89 | 1.05 | 1.06 | 1.12 | 0.744 | 1.22 | 1.17 | 1.12 | 1.29 | 1.05
NCI-H322M | 0.586 | 0.635 | 0.671 | 0.635 | 0.604 | 0.511 | 0.438 | 0.496 | 0.464 | 0.523 | 0.858 | 0.932 | 0.877 | 0.884 | 0.727 | 0.57 | 0.561 | 0.474 | 0.624 | 0.465
NCI-H358 | 0.483 | 0.545 | 0.495 | 0.53 | 0.448 | 0.306 | 0.344 | 0.331 | 0.395 | 0.227 | 0.59 | 0.292 | 0.252 | 0.389 | 0.307 | 0.475 | 0.585 | 0.574 | 0.591 | 0.484
NCI-H1395 | 1.15 | 1.04 | 1.24 | 1.13 | 1.24 | 0.726 | 0.579 | 0.683 | 0.606 | 0.628 | 0.733 | 0.899 | 0.862 | 0.649 | 0.635 | 0.382 | 0.394 | 0.387 | 0.393 | 0.394
NCI-H1993 | 0.739 | 0.859 | 0.717 | 0.822 | 1.8 | 0.842 | 0.75 | 0.669 | 1 | 0.763 | 0.714 | 0.813 | 0.982 | 1.02 | 0.825 | 0.677 | 0.775 | 0.807 | 0.712 | 0.688
CAL-12T | 0.661 | 0.759 | 0.551 | 0.562 | 0.619 | 0.515 | 0.323 | 0.339 | 0.436 | 0.388 | 0.207 | 0.364 | 0.179 | 0.19 | 0.363 | 0.644 | 0.735 | 0.698 | 0.714 | 0.648
NCI-H2347 | 0.951 | 0.829 | 1.08 | 1.04 | 0.726 | 0.685 | 0.438 | 0.597 | 0.771 | 0.603 | 0.443 | 0.717 | 0.639 | 0.357 | 0.35 | 0.732 | 0.74 | 0.812 | 0.614 | 0.642
LU99A | 0.839 | 1.14 | 0.968 | 0.956 | 0.925 | 0.331 | 0.275 | 0.318 | 0.29 | 0.32 | 0.195 | 0.24 | 0.211 | 0.259 | 0.192 | 0.255 | 0.377 | 0.264 | 0.267 | 0.343
PC-3 [JPC-3] | 0.461 | 0.344 | 0.454 | 0.47 | 0.459 | 0.666 |  | 0.655 | 0.56 | 0.762 | 0.738 | 0.633 | 0.795 | 0.615 | 0.537 | 0.885 | 0.671 | 0.828 | 0.834 | 0.336
HARA | 0.816 | 0.832 | 0.771 | 0.705 | 0.76 | 0.445 | 0.395 | 0.335 | 0.382 | 0.419 | 0.687 | 0.765 | 0.918 | 0.974 | 0.672 | 0.469 | 0.243 | 0.301 | 0.357 | 0.279
